# According to patent US10934303B2, “Aryl ethene derivative and pharmaceutical composition containing same as active ingredient” (priority 2016, dated 2021):
# Read-outs that look alike come from different tables or passages of the source.
# What was measured:
# [1] = 1 μM, 30 minutes, 37° C., NADPH
# in vivo = format: in vivo; settings: rat; for Cmax: read-out: Cmax
# Protocol: An oral administration group fasts the day before.
# Blood of each animal is collected at 0 hour.
# Into a tail vein of an intravenous administration group (IV), a drug is injected at a dose of 1 mg/kg (syringe).
# To an oral administration group (PO), a drug is orally administered at a dose of 10 mg/kg (oral zondec)
# After administration, blood of the intravenous administration group was collected through a jugular vein 8 times at 0.08, 0.25, 0.5, 1, 2, 4, 6, and 8 hours. One collected blood amount is 400 to 500 ul.
# After administration, blood of the oral administration group was collected through a jugular vein 6 times at 0.25, 0.5, 1, 4, 6 and 8 hours. One collected blood amount is 400 to 500 ul.
# Supernatant plasma is collected by a centrifuge.
# The supernatant plasma was injected into a LC-MS/MS system and the drug is analyzed.
# [2] = 1 μM, 30 minutes, 37° C., NADPH; remark: listed apart in the source
# Protocol: 2) Microsomal Stability Evaluation
# Four liver microsomes (Human, Dog, Rat, Mouse 0.5 mg/ml) with a 0.1 M phosphate buffer solution (pH 7.4), and the arylethene derivative of the present invention were added to a concentration of 1 μM, culturing was performed at 37° C. for 5 minutes in advance, a NADPH regeneration system solution was added thereto, and culturing was performed at 37° C. for 30 minutes. Thereafter, in order to complete the reaction, an acetonitrile solution containing an internal standard material (chlorpropamide) was added thereto, centrifugation (14,000 rpm, 4° C.) was performed for 5 minutes, and a supernatant was injected into a LC-MS/MS system to analyze the substrate drug, thereby evaluating metabolism stability to the arylethene derivative of the present invention.
# [3] = 1 μM, 30 minutes, 37° C., NADPH; remark: listed apart in the source
# [4] = 1 μM, 30 minutes, 37° C., NADPH; remark: listed apart in the source
# ERRγ = format: cell-based
# Protocol: AD293 was cultured in a 24-well plate for 24 hours, using a DMEM High glucose culture medium (Hyclone, USA) to which 0.5% FBS was added at a concentration of 9×10^4/well. The culture medium was replaced with a DMEM High glucose culture medium to which 10% FBS was added, treatment was performed with a mixture of a TransIT-LT1 transfection reagent (Mirus, USA) and pCMX-Gal4-ERRγ, pFR-luciferase reporter plasmid, pCMV-β-gal, and culturing was performed for 24 hours. Thereafter, a luciferase activity assay and a β-gal assay were performed, respectively, with a lysate obtained after treatment with the arylethene derivative of the present invention for 24 hours. All results were derived from three or more independent repetitive experiments.
# CYP3A4 = CYP3A4 (Homo sapiens (Human), UniProt P08684); test: Cytochrome P450 activity inhibition, CYP3A4; format: in vitro ADME; settings: 10 μM, human liver microsomes, Midazolam substrate
# Sequence of CYP3A4 (P08684 whole entry): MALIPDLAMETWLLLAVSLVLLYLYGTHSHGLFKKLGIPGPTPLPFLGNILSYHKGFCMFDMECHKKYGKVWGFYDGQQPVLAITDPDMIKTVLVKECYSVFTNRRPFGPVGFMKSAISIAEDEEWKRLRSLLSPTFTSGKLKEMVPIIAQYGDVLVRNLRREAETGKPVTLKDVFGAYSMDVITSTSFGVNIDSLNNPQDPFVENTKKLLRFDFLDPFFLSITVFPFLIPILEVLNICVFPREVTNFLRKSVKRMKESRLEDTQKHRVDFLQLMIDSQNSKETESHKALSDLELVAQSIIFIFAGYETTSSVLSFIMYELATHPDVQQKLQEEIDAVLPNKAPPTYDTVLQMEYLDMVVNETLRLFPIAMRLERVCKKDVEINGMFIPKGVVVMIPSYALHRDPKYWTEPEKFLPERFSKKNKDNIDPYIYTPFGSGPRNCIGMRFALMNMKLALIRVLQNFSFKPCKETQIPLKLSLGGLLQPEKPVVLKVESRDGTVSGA
# Excerpt: (§1) 1) Cytochrome P450 (CYP450) Activity Inhibition Evaluation
# [5] = molecular target: GST-bound ER alpha ligand-binding domain (LBD) (Homo sapiens (Human), UniProt P03372); test: biochemical; settings: TR-FRET, beta-estradiol 4 nM as agonist; read-out: Binding Assay, IC50 ERα
# Sequence of GST-bound ER alpha ligand-binding domain (LBD) (P03372 whole entry, looked up, the tested form may be a part): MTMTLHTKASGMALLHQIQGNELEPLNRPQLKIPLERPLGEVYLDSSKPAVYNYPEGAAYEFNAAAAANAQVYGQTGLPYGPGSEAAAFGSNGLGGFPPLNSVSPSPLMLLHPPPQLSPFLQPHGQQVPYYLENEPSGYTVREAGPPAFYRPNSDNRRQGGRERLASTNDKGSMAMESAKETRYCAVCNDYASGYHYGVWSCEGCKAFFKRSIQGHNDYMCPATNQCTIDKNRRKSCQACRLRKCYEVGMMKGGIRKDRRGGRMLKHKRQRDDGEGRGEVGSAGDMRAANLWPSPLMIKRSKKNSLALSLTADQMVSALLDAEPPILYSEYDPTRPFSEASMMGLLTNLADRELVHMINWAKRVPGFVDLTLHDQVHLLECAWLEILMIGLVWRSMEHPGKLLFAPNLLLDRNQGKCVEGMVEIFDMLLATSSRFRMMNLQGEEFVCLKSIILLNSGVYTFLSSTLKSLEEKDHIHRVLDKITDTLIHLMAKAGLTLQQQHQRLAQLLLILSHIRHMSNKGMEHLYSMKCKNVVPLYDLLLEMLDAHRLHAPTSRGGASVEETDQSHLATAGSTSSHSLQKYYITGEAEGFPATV
# Protocol: (§2) The arylethene derivative of the present invention was sequentially added to a 384 well plate from a concentration of 10 μM to a final concentration of two-fold dilution. […] After all reagents were added, a reaction was carried out with gentle shaking at 20° C. for 1 hour, and after the reaction, a binding activity was measured by a TR-FRET method.
# CYP2C19 = CYP2C19 (Homo sapiens (Human), UniProt P33261); test: Cytochrome P450 activity inhibition, CYP2C19; format: in vitro ADME; settings: 10 μM, human liver microsomes, S-mephenytoin substrate
# Sequence of CYP2C19 (P33261 whole entry): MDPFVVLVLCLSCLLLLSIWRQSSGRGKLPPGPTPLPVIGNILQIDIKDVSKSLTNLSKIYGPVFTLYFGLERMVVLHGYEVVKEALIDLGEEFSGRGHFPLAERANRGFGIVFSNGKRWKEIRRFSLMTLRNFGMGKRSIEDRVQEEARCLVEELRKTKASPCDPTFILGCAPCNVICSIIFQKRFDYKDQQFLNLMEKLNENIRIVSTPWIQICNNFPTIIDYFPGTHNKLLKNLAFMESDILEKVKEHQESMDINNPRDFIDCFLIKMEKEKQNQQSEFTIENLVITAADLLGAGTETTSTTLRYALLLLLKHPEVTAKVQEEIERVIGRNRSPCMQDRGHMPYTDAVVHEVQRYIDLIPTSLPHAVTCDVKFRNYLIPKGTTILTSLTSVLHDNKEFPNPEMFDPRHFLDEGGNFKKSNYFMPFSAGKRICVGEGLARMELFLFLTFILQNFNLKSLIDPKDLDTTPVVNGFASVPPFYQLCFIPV
# Excerpt: as §1
# CYP1A2 = CYP1A2 (Homo sapiens (Human), UniProt P05177); test: Cytochrome P450 activity inhibition, CYP1A2; format: in vitro ADME; settings: 10 μM, human liver microsomes, Phenacetin substrate
# Sequence of CYP1A2 (P05177 whole entry): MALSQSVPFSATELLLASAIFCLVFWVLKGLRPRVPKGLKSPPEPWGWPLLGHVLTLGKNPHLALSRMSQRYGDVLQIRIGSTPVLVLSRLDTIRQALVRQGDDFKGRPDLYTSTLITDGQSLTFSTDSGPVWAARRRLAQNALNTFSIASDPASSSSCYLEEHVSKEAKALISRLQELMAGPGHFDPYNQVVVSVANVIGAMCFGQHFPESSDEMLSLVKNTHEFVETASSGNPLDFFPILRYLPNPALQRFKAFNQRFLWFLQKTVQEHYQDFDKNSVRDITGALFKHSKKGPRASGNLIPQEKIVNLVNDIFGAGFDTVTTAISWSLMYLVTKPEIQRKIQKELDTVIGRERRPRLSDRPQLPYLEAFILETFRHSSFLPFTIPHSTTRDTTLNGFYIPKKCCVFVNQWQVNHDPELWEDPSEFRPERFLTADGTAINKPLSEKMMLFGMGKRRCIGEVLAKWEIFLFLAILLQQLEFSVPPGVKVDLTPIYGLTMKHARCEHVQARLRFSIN
# Excerpt: as §1
# CYP2C9 = CYP2C9 (Homo sapiens (Human), UniProt P11712); test: Cytochrome P450 activity inhibition, CYP2C9; format: in vitro ADME; settings: 10 μM, human liver microsomes, Diclofenac substrate
# Sequence of CYP2C9 (P11712 whole entry): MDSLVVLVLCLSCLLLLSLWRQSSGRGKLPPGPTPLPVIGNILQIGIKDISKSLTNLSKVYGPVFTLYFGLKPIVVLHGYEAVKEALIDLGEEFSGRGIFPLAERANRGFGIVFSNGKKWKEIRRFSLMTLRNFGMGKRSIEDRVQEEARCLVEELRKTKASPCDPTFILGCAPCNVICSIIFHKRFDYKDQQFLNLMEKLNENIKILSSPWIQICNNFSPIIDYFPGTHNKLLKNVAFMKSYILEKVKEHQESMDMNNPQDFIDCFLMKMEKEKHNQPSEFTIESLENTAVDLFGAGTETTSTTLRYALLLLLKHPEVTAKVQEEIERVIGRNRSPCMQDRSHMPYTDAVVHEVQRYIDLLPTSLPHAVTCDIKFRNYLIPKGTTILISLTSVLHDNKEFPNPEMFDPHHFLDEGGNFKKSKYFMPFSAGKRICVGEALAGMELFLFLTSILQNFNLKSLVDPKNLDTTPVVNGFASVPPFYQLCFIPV
# Excerpt: as §1
# CYP2D6 = CYP2D6 (Homo sapiens (Human), UniProt P10635); test: Cytochrome P450 activity inhibition, CYP2D6; format: in vitro ADME; settings: 10 μM, human liver microsomes, Dextromethorphan substrate
# Sequence of CYP2D6 (P10635 whole entry): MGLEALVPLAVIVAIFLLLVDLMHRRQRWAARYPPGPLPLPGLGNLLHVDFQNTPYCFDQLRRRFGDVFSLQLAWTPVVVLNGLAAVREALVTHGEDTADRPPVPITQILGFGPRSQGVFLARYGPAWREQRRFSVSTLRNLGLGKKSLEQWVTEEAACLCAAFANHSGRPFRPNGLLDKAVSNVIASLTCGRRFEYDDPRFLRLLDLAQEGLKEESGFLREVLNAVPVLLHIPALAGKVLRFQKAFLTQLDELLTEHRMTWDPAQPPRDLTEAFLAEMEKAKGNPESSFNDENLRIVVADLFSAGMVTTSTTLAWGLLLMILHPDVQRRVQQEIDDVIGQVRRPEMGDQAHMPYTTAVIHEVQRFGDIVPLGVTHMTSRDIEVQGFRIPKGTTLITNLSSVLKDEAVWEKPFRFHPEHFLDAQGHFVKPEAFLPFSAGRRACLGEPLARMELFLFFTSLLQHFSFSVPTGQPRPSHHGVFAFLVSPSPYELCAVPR
# Excerpt: as §1
# GST-bound ERR alpha LBD = GST-bound ERR alpha LBD (Homo sapiens (Human), UniProt P11474); settings: TR-FRET, PGC1a coactivator; read-out: Binding Assay, IC50 ERRα
# Sequence of GST-bound ERR alpha LBD (P11474 193-421): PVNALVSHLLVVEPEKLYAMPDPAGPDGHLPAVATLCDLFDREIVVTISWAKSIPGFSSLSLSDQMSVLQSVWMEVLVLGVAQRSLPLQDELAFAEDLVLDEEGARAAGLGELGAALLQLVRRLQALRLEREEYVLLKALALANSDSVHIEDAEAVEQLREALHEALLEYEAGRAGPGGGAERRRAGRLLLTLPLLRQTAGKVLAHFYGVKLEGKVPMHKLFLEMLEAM
# Protocol: as §2
# in vitro = in vitro ADME; settings: PBS pH 7.4, 25° C., 5 hours
# Protocol: 3) Parallel Artificial Membrane Permeability Assay (PAMPA) Evaluation
# PAMPA is a method which has been developed for testing cell membrane permeability of a material in a test tube, and has been performed using a lipid tri-layer PVDF membrane available from Corning Gentest (NY, US), the used reagents were all purchased from Sigma (MO, US). First, a test material is diluted in PBS (pH 7.4) to a final concentration of 10 mM, 300 mL of the solution is added to the bottom well of a 96-transwell equipped with a PVDF membrane, and 200 mL of PBS is added to the upper well. Then, a plate is reacted at 25° C. for 5 hours, 20 mL of the solution in each well is transferred to a new container, and 80 mL of acetonitrile containing an internal standard material (4 mM chloropropamide) is added thereto. A concentration of the material in the solution is analyzed using LC-MS/MS (ThermoFisher Scientific, MO, US), and the transmittance of the material is calculated according to the equation reported in the reference document.
# [6] = activity relative to reference compound GSK5182, 10 μM
Compound,MS(Microsomal Stability) (%) human [1],MS(Microsomal Stability) (%) rat [2],MS(Microsomal Stability) (%) mouse [3],MS(Microsomal Stability) (%) dog [4],CYP inhibition (% of control) 3A4 (CYP3A4),CYP inhibition (% of control) 2C19 (CYP2C19),CYP inhibition (% of control) 1A2 (CYP1A2),CYP inhibition (% of control) 2C9 (CYP2C9),CYP inhibition (% of control) 2D6 (CYP2D6),Permeability Pampa (in vitro),further results
CC(C)N1CCC(c2ccc(/C(=C(/CCCO)c3ccccc3)c3ccc(O)cc3)cc2)C1 (racemic) [Compound 22s],34.9%,75.6%,21.7%,35.4%,,,,,,,"AUCall (in vivo; IV, 1 mg/kg): 0.44 μMh; Vss (in vivo; IV, 1 mg/kg): 13.2 L/kg; t1/2 (in vivo; IV, 1 mg/kg): 2.2 h; AUCINF (in vivo; PO, 10 mg/kg): 0.11 μMh; AUCall (in vivo; PO, 10 mg/kg): 0.09 μMh; BA (in vivo; PO, 10 mg/kg): 18.5%; Tmax (in vivo; PO, 10 mg/kg): 1.3 h; Cmax (in vivo; PO, 10 mg/kg): 0.02 µM"
CC(C)N1CCC(c2ccc(/C(=C(/CCCO)c3ccccc3)c3cccc(O)c3)cc2)C1 (racemic) [Compound 22u],40.0%,44.3%,17.2%,10.0%,,,,,,,
"Cl.Cl.OCCC/C(=C(\c1ccc(O)cc1)c1ccc(OCCN2CCNCC2)cc1)c1ccccc1 [Compound 7a, (Z)-4-(5-hydroxy-2-phenyl-1-(4-(2-(piperazin-1-yl)ethoxy)phenyl)pent-1-en-1-yl)phenol 2hydrochloride salt]",49.0%,59.5%,32.1%,64.7%,,,,,,,"Functional Assay at 10 μM (% of control), Cpds (ERRγ): 2.71 % of control; Functional Assay, Cpds/Ref 5182 (ERRγ): 0.86"
CC(C)N1CCN(c2ccc(/C(=C(/CCCO)c3ccccc3)c3ccc(Br)cc3)cc2)CC1 [Compound 18e],,,,,84 % of control,84.6 % of control,>100 % of control,91.3 % of control,>100 % of control,1.11 10^−6 cm/s,"IC50 [5]: > 10 µM; Functional Assay at 10 μM (% of control), Cpds (ERRγ; 10 μM, 24 hours, AD293): 2.6 % of control; Functional Assay, Cpds/Ref 5182 (ERRγ; [6]): 0.89; IC50 (GST-bound ERR alpha LBD): > 10 µM; AUCINF (in vivo; IV, 1 mg/kg): 0.06 μMh; AUCall (in vivo; IV, 1 mg/kg): 0.06 μMh; Vss (in vivo; IV, 1 mg/kg): 39.1 L/kg; t1/2 (in vivo; IV, 1 mg/kg): 0.8 h; AUCINF (in vivo; PO, 10 mg/kg): 0.09 μMh; AUCall (in vivo; PO, 10 mg/kg): 0.07 μMh; BA (in vivo; PO, 10 mg/kg): 11.5%; Tmax (in vivo; PO, 10 mg/kg): 2.8 h; Cmax (in vivo; PO, 10 mg/kg): 0.01 µM"
CC(C)N1CCN(c2ccc(/C(=C(/CCCO)c3ccccc3)c3cccc(O)c3)cc2)CC1 [Compound 18k],65.4%,54.9%,26.9%,61.2%,,,,,,1.29 10^−6 cm/s,"Functional Assay at 10 μM (% of control), Cpds (ERRγ; 10 μM, 24 hours, AD293): 1.08 % of control; Functional Assay, Cpds/Ref 5182 (ERRγ; [6]): 1.14"
Cc1ccc(/C(=C(\CCCO)c2ccccc2)c2ccc(C3CCNCC3)cc2)cc1 [Compound 20k],93.6%,89.0%,81.3%,84.9%,83.6 % of control,78.9 % of control,79.3 % of control,87.6 % of control,96.2 % of control,,
CCN1CCC(c2ccc(C(=C(CCCO)c3ccccc3)c3cccc(O)c3)cc2)CC1 [Compound 22ae],48.4%,32.2%,21.5%,33.7%,81.5 % of control,>100 % of control,59.4 % of control,>100 % of control,68.4 % of control,,
Cc1ccc(/C(=C(\CCCO)c2ccccc2)c2ccc(C3CCN(C)CC3)cc2)cc1 [Compound 22f],97.0%,80.0%,66.3%,78.1%,,,,,,3.96 10^−6 cm/s,
CC(C)N1CCC(c2ccc(/C(=C(/CCCO)c3ccccc3)c3cccc(O)c3)cc2)CC1 [Compound 22h],46.9%,43.8%,16.2%,22.4%,72.2 % of control,>100 % of control,>100 % of control,97.9 % of control,69.1 % of control,,
OCCC/C(=C(\c1ccc(O)cc1)c1ccc(C2CCN(C3CC3)CC2)cc1)c1ccccc1 [Compound 22i],36.0%,92.6%,83.6%,91.5%,,,,,,0.35 10^−6 cm/s,"AUCINF (in vivo; IV, 1 mg/kg): 0.54 μMh; AUCall (in vivo; IV, 1 mg/kg): 0.49 μMh; Vss (in vivo; IV, 1 mg/kg): 11.7 L/kg; t1/2 (in vivo; IV, 1 mg/kg): 3.0 h; AUCINF (in vivo; PO, 10 mg/kg): 4.52 μMh; AUCall (in vivo; PO, 10 mg/kg): 2.24 μMh; BA (in vivo; PO, 10 mg/kg): 45.3%; Tmax (in vivo; PO, 10 mg/kg): 2.2 h; Cmax (in vivo; PO, 10 mg/kg): 0.38 µM"
CC(C)N1CCC(c2ccc(/C(=C(/CCCO)c3ccccc3)c3ccc(O)cc3)cc2)CC1 [Compound 22k],59.7%,69.0%,23.4%,59.6%,74.7 % of control,>100 % of control,>100 % of control,97 % of control,73.7 % of control,,"IC50 [5]: 1.38 µM; Functional Assay at 10 μM (% of control), Cpds (ERRγ; 10 μM, 24 hours, AD293): 0.77 % of control; Functional Assay, Cpds/Ref 5182 (ERRγ; [6]): 0.83; IC50 (GST-bound ERR alpha LBD): > 10 µM"
OCCC/C(=C(/c1ccc(C2=CCN(C3CC3)CC2)cc1)c1cccc(O)c1)c1ccccc1 [Compound 22l],71.8%,53.4%,25.8%,67.9%,80.7 % of control,97 % of control,96.2 % of control,88.3 % of control,99 % of control,,
CC(C)N1CCN(c2ccc(/C(=C(/CCCO)c3ccccc3)c3ccc(N)cc3)cc2)CC1 [Compound 26b],49.1%,31.4%,14.3%,40.6%,60.9 % of control,98.7 % of control,99.2 % of control,92.5 % of control,81.9 % of control,,
CC(=O)Nc1ccc(/C(=C(\CCCO)c2ccccc2)c2ccc(C3CCN(C4CC4)CC3)cc2)cc1 [Compound 27c],83.5%,79.4%,42.1%,81.2%,,,,,,0.68 10^−6 cm/s,
CC(=O)Nc1ccc(/C(=C(\CCCOC(C)=O)c2ccccc2)c2ccc(C3CCN(C4CC4)CC3)cc2)cc1 [Compound 27d],63.7%,67.6%,17.6%,43.8%,,,,,,0.34 10^−6 cm/s,
